Test results from article PMC12406199, “NanoDSF Screening for Anti-tubulin Agents Uncovers New Structure–Activity Insights” (Journal of Medicinal Chemistry, 2025).
Structures can show the parent of a compound that is named as a salt.

target: tubulin (Ovis aries, UniProt D0VWY9+D0VWZ0); assay: nanoDSF screen, shift of polymerization temperature at about […]; format: biochemical; conditions: not given
Sequence (D0VWY9 entry or part of it): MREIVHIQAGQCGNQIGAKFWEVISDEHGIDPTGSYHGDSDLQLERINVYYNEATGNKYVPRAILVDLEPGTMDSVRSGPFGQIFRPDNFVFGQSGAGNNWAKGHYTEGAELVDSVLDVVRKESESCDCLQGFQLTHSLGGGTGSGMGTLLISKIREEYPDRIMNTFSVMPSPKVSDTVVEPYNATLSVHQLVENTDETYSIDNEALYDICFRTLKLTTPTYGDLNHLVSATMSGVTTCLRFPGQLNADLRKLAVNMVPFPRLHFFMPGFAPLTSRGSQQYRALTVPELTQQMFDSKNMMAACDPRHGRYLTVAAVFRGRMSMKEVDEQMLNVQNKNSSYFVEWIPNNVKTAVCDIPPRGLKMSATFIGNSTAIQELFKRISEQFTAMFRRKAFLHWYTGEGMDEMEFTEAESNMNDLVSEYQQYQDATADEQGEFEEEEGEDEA
Sequence (D0VWZ0 entry or part of it): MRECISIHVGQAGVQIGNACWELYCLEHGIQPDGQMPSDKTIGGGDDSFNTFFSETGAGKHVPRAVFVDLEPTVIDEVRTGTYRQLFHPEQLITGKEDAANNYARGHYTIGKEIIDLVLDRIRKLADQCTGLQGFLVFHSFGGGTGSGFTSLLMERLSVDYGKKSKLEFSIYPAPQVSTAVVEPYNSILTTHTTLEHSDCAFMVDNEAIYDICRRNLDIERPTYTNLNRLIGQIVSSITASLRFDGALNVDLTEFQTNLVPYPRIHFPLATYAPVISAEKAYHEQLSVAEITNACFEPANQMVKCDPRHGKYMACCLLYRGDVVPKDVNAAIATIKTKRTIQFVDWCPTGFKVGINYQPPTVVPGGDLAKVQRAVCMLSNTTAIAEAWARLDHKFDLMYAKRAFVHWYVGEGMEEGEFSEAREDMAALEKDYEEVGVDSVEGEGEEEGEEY

Structure (SMILES) | ΔTm at 50 µM [°C]
CCCSc1ccc2nc(NC(=O)OC)[nH]c2c1 [ABZ, Albendazole] | 6.4
COC(=O)Nc1nc2ccc(C(=O)c3cccs3)cc2[nH]1 [NCZ, Nocodazole] | 6

test system: U87MG; assay: cells; design: MTT viability assay on U87MG glioblastoma cells; conditions: Homo sapiens, U-87 MG, 72 h
Method: Glioblastoma cell culture routines, viability, and proliferation assays were performed as previously described. U87MG cells were maintained in complete MEM media supplemented with 10% FBS and 2 mM L-glutamine (Invitrogen, Paris, France). For cytotoxicity assays, cells were counted and plated in 96-well flat-bottom plates (50,000 cells/mL, 5000 cells per well). After 24 h, the cells were treated with increasing concentrations of the MTAs (0, 1, 5, 10, and 20–40 μM) in a vehicle solution, containing 0.05% DMSO. All concentrations were done in triplicates. The surviving cells were quantified after 72 h by the tetrazolium bromide MTT-assay, according to the manufacturer’s instructions. After cell lysis, the optical density was measured at 600 nm using a Multiskan MS Thermo plate reader (LabSystems, Waltham, MA, USA).

Structure (SMILES) | IC50 [µM]
O[C@@H](c1cc(C(F)(F)F)nc2c(C(F)(F)F)cccc12)[C@H]1CCCCN1 (racemic) [MFQ, Mefloquine] | 11.6 ± 1.2
CCCSc1ccc2nc(NC(=O)OC)[nH]c2c1 [ABZ, Albendazole] | 0.3
C[C@@H](O[C@H]1OCCN(Cc2n[nH]c(=O)[nH]2)[C@H]1c1ccc(F)cc1)c1cc(C(F)(F)F)cc(C(F)(F)F)c1 [APT, Aprepitant] | 41.8 ± 31.8
C[C@H]1[C@H](OC(=O)CCC(=O)O)O[C@@H]2O[C@@]3(C)CC[C@H]4[C@H](C)CC[C@@H]1[C@@]24OO3 [ASN, Artesunate] | 24 ± 4.1
CCc1oc2ccccc2c1C(=O)c1ccc(O)cc1 [BZ, Benzarone] | 7.4 ± 0.7
CCc1oc2ccccc2c1C(=O)c1cc(Br)c(O)c(Br)c1 [BZB, Benzbromarone] | 62.1 ± 2.8
Nc1cc(C(Cl)=C(Cl)Cl)c(S(N)(=O)=O)cc1S(N)(=O)=O [CLS, Clorsulon] | 66.8 ± 13.3
CN(C)CC/C=C1/c2ccccc2Sc2ccc(Cl)cc21 [CPX, Chlorprothixene] | 27.6 ± 2.2
CN(C)CCCN1c2ccccc2Sc2ccc(Cl)cc21 [CPZ, Chlorpromazine] | 4.5 ± 0.5
Oc1ccc(Cl)cc1Cc1cc(Cl)ccc1O [DCP, Dichlorophen] | 7.7 ± 1.2
N#CC(c1ccc(Cl)cc1)c1c(Cl)cc(-n2ncc(=O)[nH]c2=O)cc1Cl (stereo not drawn) [DCZ, Diclazuril] | 48.9 ± 6
C/C=C(/C(=C/C)c1ccc(O)cc1)c1ccc(O)cc1 [DE, Dienestrol] | 23.6 ± 1
CCN(CC)C(=S)SSC(=S)N(CC)CC [DFM, Disulfiram] | 12 ± 1.6
O=c1c2ccccc2[se]n1-c1ccccc1 [EBS, Ebselen] | 50.9 ± 32.7
C[C@]12CC[C@@H]3c4ccc(O)cc4CC[C@H]3[C@@H]1CC[C@@H]2O [ED, 17β-estradiol] | 30.7 ± 1.9
C#C[C@]1(O)CC[C@H]2[C@@H]3CCc4cc(O)ccc4[C@H]3CC[C@@]21C [EES, Ethinylestradiol] | 15.7 ± 0.8
O=C1Nc2ccc(Cl)cc2[C@@](C#CC2CC2)(C(F)(F)F)O1 [EFV, Efavirenz] | 26.7 ± 2.6
COC(=O)Nc1nc2ccc(Sc3ccccc3)cc2[nH]1 [FBZ, Fenbendazole] | 0.2
CCOC(=O)C1=C(C)NC(C)=C(C(=O)OC)C1c1cccc(Cl)c1Cl (stereo not drawn) [FDP, Felodipine] | 13.7 ± 4
COC(=O)Nc1nc2cc(C(=O)c3ccc(F)cc3)ccc2[nH]1 [FLU, Flubendazol] | 0.6
OCCN1CCN(CC/C=C2/c3ccccc3Sc3ccc(C(F)(F)F)cc32)CC1 [FPX, Flupentixol] | 9.8 ± 1.8
COC1=CC(=O)C[C@@H](C)[C@]12Oc1c(Cl)c(OC)cc(OC)c1C2=O [GSF, Griseofulvin] | 24.4 ± 3.7
Oc1c(Cl)cc(Cl)c(Cl)c1Cc1c(O)c(Cl)cc(Cl)c1Cl [HCP, Hexachlorophene] | 5.1 ± 0.7
CC[C@H](c1ccc(O)cc1)[C@@H](CC)c1ccc(O)cc1 [Hexestrol] | 20.2 ± 0.5
Clc1ccc(C(Cn2ccnc2)OCc2c(Cl)cccc2Cl)c(Cl)c1 (stereo not drawn) [ICZ, Isoconazole] | 33.1 ± 1.8
C[C@]12C=CC(=O)C=C1CC[C@@H]1[C@@H]2CC[C@@]2(C)[C@H]1CC[C@]2(C)O [MAS, Methandrostenolone] | 58.7 ± 5.1

Structure (SMILES) | IC50 [µM]
CN(C)c1ccc2nc3ccc(=[N+](C)C)cc-3sc2c1 [MB, Methylene Blue] | 64.2 ± 9.9
Clc1ccc(C(c2ccccc2Cl)C(Cl)Cl)cc1 (stereo not drawn) [MTT, Mitotane] | 23.7 ± 2.7
COC(=O)Nc1nc2ccc(C(=O)c3cccs3)cc2[nH]1 [NCZ, Nocodazole] | < 0.1
N=C(N)Nc1ccc(C(=O)Oc2ccc3cc(C(=N)N)ccc3c2)cc1 [NFM, Nafamostat] | 45.2 ± 6.1
COC(=O)C1=C(C)NC(C)=C(C(=O)OCC(C)C)C1c1ccccc1[N+](=O)[O-] (stereo not drawn) [NSD, Nisoldipine] | 25.3 ± 1.6
CCOC(=O)C1=C(C)NC(C)=C(C(=O)OC)C1c1cccc([N+](=O)[O-])c1 (stereo not drawn) [NTD, Nitrendipine] | 36.8 ± 3.3
CNCCC=C1c2ccccc2CCc2ccccc21 [NTP, Nortriptyline] | 20.5 ± 1.5
CCCOc1ccc2[nH]c(NC(=O)OC)nc2c1 [OBZ, Oxibendazol] | 1.8 ± 0.3
COC(=O)Nc1nc2cc([S+]([O-])c3ccccc3)ccc2[nH]1 (stereo not drawn) [OFZ, Oxfendazole] | 17 ± 1
COc1ccc(C(=O)c2ccccc2)c(O)c1 [OXY, Oxybenzone] | 14.4 ± 7
CC(C)c1cccc(C(C)C)c1O [PPF, Propofol] | 26.6 ± 2.5
OCCN1CCN(CCCN2c3ccccc3Sc3ccc(Cl)cc32)CC1 [PPZ, Perphenazine] | 9.8 ± 0.4
CNCCCC1c2ccccc2C=Cc2ccccc21 [PTP, Protriptyline hydrochloride] | 17.7 ± 1.5
c1ccc2c(c1)Nc1ccccc1S2 [PTZ, Phenothiazine] | 60.2 ± 9.2
O=C1NCCN1CCN1CCC(c2cn(-c3ccc(F)cc3)c3ccc(Cl)cc23)CC1 [STD, Sertindole] | 6.7 ± 0.2
Clc1ccc(C(Cn2ccnc2)OCc2csc3c(Cl)cccc23)c(Cl)c1 (stereo not drawn) [STZ, Sertaconazole nitrate] | 10.7 ± 1.3
Cc1cc2nc3ccc(N(C)C)cc3[s+]c2cc1N [TBO, Tolonium (Toluidine Blue O)] | 6.3 ± 0.3
Oc1cc(Cl)ccc1Oc1ccc(Cl)cc1Cl [TCL, Triclosan] | 11.6 ± 0.5
CSc1nc2cc(Cl)c(Oc3cccc(Cl)c3Cl)cc2[nH]1 [TCZ, Triclabendazole] | 15.1 ± 0.9
CCSc1ccc2c(c1)N(CCCN1CCN(C)CC1)c1ccccc1S2 [TEP, Thiethylperazine] | 8.4 ± 0.2
CN1CCN(CCCN2c3ccccc3Sc3ccc(C(F)(F)F)cc32)CC1 [TFP, Trifluoperazine] | 17.3 ± 3.2
CN(C)CCCN1c2ccccc2Sc2ccc(C(F)(F)F)cc21 [TFZ, Triflupromazine] | 6.5 ± 0.6
Cc1c(C)c2c(c(C)c1O)CCC(C)(COc1ccc(CC3SC(=O)NC3=O)cc1)O2 (stereo not drawn) [TGZ, Troglitazone] | 39.5 ± 1
CN(C)CCOc1ccc(/C(=C(/CCCl)c2ccccc2)c2ccccc2)cc1 [TMF, Toremifene] | 13.3 ± 1.9
Clc1ccc(C(Cn2ccnc2)OCc2ccsc2Cl)c(Cl)c1 (stereo not drawn) [TOZ, Tioconazole] | 18.3 ± 1.4
CNCCC=C1c2ccccc2C=Cc2ccccc21 [nCBP, Norcyclobenzaprine] | 15.2 ± 0.8
